From US20110269811A1, “INHIBITORS OF SEMICARBAZIDE-SENSITIVE AMINE OXIDASE (SSAO) AND VAP-1 MEDIATED ADHESION USEFUL FOR TREATMENT AND PREVENTION OF DISEASES” (priority 2006, published 2011)
Structures can show the parent of a compound that is named as a salt. Where two headings read alike, the source gives them in different places.

Tests used:
Rat SSAO = target: T1, Rat SSAO (Rattus norvegicus, UniProt O08590); assay: In vitro inhibition of SSAO activity, rat lung homogenate, 14C-benzylamine; format: biochemical
T1 construct: rat lung or human umbilical cord homogenates were prepared by chopping the freshly removed tissue; from tissue; host or cells: rat lung homogenate (1000 g supernatant)
T1 sequence (O08590 1-763): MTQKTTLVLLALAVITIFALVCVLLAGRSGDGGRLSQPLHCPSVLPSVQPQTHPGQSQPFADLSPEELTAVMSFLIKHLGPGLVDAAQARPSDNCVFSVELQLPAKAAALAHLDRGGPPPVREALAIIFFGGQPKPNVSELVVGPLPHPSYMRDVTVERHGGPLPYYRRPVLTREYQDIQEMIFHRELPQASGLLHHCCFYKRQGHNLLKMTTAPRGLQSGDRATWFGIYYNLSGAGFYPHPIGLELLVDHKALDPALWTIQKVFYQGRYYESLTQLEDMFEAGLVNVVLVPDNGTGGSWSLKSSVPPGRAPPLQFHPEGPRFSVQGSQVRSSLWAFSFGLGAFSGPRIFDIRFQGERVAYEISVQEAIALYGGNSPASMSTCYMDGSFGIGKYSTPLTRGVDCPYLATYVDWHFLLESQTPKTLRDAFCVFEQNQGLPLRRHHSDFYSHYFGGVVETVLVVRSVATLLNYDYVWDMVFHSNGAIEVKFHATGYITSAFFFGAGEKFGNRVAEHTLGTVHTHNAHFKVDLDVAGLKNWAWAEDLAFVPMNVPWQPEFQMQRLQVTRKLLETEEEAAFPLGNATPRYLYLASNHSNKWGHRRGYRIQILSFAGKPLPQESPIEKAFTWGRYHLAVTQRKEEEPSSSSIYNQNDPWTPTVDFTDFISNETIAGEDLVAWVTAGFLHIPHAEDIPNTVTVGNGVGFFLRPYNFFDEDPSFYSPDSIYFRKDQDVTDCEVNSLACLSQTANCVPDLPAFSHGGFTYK
Experimental: (§1) SSAO activity was measured as described (Lizcano J M. Et al. (1998) Biochem J. 331:69). Briefly, rat lung or human umbilical cord homogenates were prepared by chopping the freshly removed tissue into small pieces and washing them thoroughly in PBS. The tissue was then homogenized 1:10 (w/v) for lung or 1:5 (w/v) for umbilical cord, in 10 mM potassium phosphate buffer (pH 7.8). Homogenates were then centrifuged at 1000 g at 4° C. for 10 min (lung) or 25,000 g for 30 min (umbilical cord); the supernatants were kept frozen until ready to use. Lung or umbilical cord homogenate was preincubated with clorgyline and pargyline at 1 μM to inhibit MAO-A and -B activity, respectively, and SSAO inhibitors were generally present at 1 nM-10 μM. The reaction was initiated by addition of 20 μM ^14C— benzylamine as substrate. The reaction was carried out at 37° C. in a final volume of 400 μL of 100 mM potassium phosphate buffer (pH 7.2) and stopped with 100 μl of 2M citric acid. Radioactively labeled products were extracted into toluene/ethyl acetate (1:1, v/v) containing 0.6% (w/v) 2,5-diphenyloxazole (PPO) before liquid scintillation counting.

Human SSAO = target: T2, Human SSAO (Homo sapiens, UniProt Q16853); assay: In vitro inhibition of SSAO activity, human umbilical cord homogenate, 14C-benzylamine; format: biochemical
T2 construct: rat lung or human umbilical cord homogenates were prepared by chopping the freshly removed tissue; from tissue; host or cells: human umbilical cord homogenate (25,000 g supernatant)
T2 sequence (Q16853 1-763): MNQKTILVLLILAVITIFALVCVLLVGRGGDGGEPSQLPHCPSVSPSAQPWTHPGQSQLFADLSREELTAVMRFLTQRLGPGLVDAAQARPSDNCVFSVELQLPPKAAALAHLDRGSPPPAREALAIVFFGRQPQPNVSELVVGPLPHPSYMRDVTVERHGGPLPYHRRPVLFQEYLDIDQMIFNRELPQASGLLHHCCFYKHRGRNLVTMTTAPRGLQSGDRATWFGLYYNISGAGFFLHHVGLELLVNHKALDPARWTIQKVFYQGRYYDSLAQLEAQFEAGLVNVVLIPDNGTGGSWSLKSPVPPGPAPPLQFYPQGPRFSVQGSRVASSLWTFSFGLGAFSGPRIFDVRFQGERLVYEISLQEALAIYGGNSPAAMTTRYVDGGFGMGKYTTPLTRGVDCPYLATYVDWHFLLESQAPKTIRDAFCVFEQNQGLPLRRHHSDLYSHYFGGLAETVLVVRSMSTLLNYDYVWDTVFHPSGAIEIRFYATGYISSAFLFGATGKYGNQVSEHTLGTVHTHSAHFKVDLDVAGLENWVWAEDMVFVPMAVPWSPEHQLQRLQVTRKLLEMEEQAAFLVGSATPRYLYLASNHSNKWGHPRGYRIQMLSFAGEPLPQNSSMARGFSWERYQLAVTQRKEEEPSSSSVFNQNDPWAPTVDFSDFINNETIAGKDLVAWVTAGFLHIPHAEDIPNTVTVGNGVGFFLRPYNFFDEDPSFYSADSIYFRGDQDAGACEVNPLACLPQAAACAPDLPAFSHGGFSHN
Experimental: as §1

[1] = human umbilical cord homogenate, read-out: Human SSAO IC50

Row | SMILES | IC50 (Human SSAO; [1]) [nM] | IC50 (Rat SSAO) [nM] | IC50 (Human SSAO; as restated in Example 46, read-out: IC50 for human SSAO) [nM]
1 | COc1ccc(C/C(=C/F)CN)cc1.Cl [Compound I-1-Z, (Z)-3-Fluoro-2-(4-methoxybenzyl)-allylamine hydrochloride] |  | 13 | 18
2 | CCOc1ccc(C/C(=C\F)CN)cc1.Cl [Compound I-2-E, (E)-3-Fluoro-2-(4-ethoxybenzyl)-allylamine hydrochloride] | 9 | 8 | 
3 | CCOc1ccc(C/C(=C/F)CN)cc1.Cl [Compound I-2-Z, (Z)-3-Fluoro-2-(4-ethoxybenzyl)-allylamine hydrochloride] | 10 | 5 | 
4 | Cl.NC/C(=C\F)Cc1ccc(Cl)cc1 [Compound I-3-Z, (Z)-2-(4-Chlorobenzyl)-3-fluoro-allylamine hydrochloride] | 28 |  | 
5 | COc1cccc(C/C(=C/F)CN)c1.Cl [Compound I-5-Z, (Z)-3-Fluoro-2-(3-methoxybenzyl)allylamine hydrochloride] | 28 |  | 
6 | CC(C)Oc1ccc(C/C(=C\F)CN)cc1 [Compound I-8-E, (E)-3-Fluoro-2-(4-isopropoxybenzyl)allylamine hydrochloride] | 11.4 |  | 
7 | CC(C)Oc1ccc(C/C(=C/F)CN)cc1.Cl [Compound I-8-Z, (Z)-3-Fluoro-2-(4-isopropoxybenzyl)allylamine hydrochloride] | 5 |  | 
8 | CSc1ccc(C/C(=C/F)CN)cc1.Cl [Compound I-9-Z, (Z)-3-Fluoro-2-(4-methylthiobenzyl)allylamine hydrochloride] | 12 |  | 
9 | CC(C)c1ccc(C/C(=C\F)CN)cc1.Cl [Compound I-14-E, (E)-3-Fluoro-2-(4-isopropylbenzyl)allylamine hydrochloride] | 13 |  | 
10 | CC(C)c1ccc(C/C(=C/F)CN)cc1.Cl [Compound I-14-Z, (Z)-3-Fluoro-2-(4-isopropylbenzyl)allylamine hydrochloride] | 8 |  | 
11 | CC(C)(C)c1ccc(C/C(=C/F)CN)cc1.Cl [Compound I-15-Z, (Z)-3-Fluoro-2-(4-tert-butylbenzyl)allylamine hydrochloride] | 7 |  | 
12 | Cl.NC/C(=C\F)Cc1cccc(F)c1 [Compound I-19-Z, (Z)-3-Fluoro-2-(3-fluorobenzyl)allylamine hydrochloride] | 25 |  | 
13 | NC/C(=C\Cl)CCc1cc(F)cc(C(F)(F)F)c1.O=C(O)C(F)(F)F [Compound I-40-Z, (Z)-3-Chloro-2-(3-fluoro-5-trifluoromethylphenylethyl)allylamine trifluoroacetate] | 920 |  | 
14 | COc1ccc(CC/C(=C\Cl)CN)cc1.Cl [Compound I-44-Z, (E)-3-Chloro-2-(4-methoxyphenylethyl)allylamine hydrochloride] | 720 |  | 
15 | CCOc1ccc(CC/C(=C\Cl)CN)cc1.Cl [Compound I-45-Z, (E)-3-Chloro-2-(4-ethoxyphenylethyl)allylamine hydrochloride] | 140 |  | 
16 | CCCCOc1ccc(CC/C(=C\Cl)CN)cc1.Cl [Compound I-47-E, (E)-3-Chloro-2-(4-n-butoxyphenylethyl)allylamine hydrochloride] | 170 |  | 
17 | NC/C(=C\F)CCc1ccc(F)cc1 [Compound I-99-Z, (Z)-2-(fluoromethylene)-4-(4-fluorophenyl)butan-1-amine] | 130 |  | 
18 | COc1ccc(CC/C(=C/F)CN)cc1.Cl [Compound I-102-Z, (Z)-3-Fluoro-2-[2-(4-methoxyphenyl)-ethyl]-allylamine hydrochloride] | 30 |  | 
19 | NC/C(=C\F)CCc1cc(F)cc(C(F)(F)F)c1.O=C(O)C(F)(F)F [Compound I-109-Z, (Z)-3-Fluoro-2-(3-fluoro-5-trifluoromethylphenylethyl)allylamine trifluoroacetate] | 270 |  | 
20 | NC/C(F)=C\Cc1cc(F)cc(C(F)(F)F)c1 [II-1-E, (E)-2-Fluoro-4-(3-fluoro-5-trifluoromethylphenyl)-but-2-enylamine] | 36 | 38 | 
21 | Cl.NC/C(F)=C\Cc1ccc(F)cc1 [II-5-E, (E)-2-Fluoro-4-(4-fluorophenyl)-2-butenylamine hydrochloride] | 300 |  | 

Continued, in another order:

Row | IC50 (Human SSAO; [1]) [nM] | SMILES | IC50 (Rat SSAO) [nM] | IC50 (Human SSAO; as restated in Example 46, read-out: IC50 for human SSAO) [nM]
22 | 130 | Cc1cccc(C/C=C(/F)CN)c1.Cl [II-6-E, (E)-2-Fluoro-4-(3-methylphenyl)-2-butenylamine hydrochloride] |  | 
23 | 220 | Cl.NC/C(F)=C\Cc1cccc(F)c1 [II-7-E, (E)-2-Fluoro-4-(3-fluorophenyl)-2-butenylamine hydrochloride] |  | 
24 | 22 | COc1cccc(C/C=C(/F)CN)c1.Cl [II-8-E, (E)-2-Fluoro-4-(3-methoxyphenyl)-2-butenylamine hydrochloride] |  | 
25 | 99 | Cl.NC/C(F)=C\Cc1ccccc1 [II-9-E, (E)-2-Fluoro-4-phenyl-2-butenylamine hydrochloride] |  | 
26 | 18 | Cl.NC/C(F)=C\Cc1cccc(OC(F)(F)F)c1 [II-10-E, (E)-2-Fluoro-4-(3-trifluoromethoxyphenyl)-2-butenylamine hydrochloride] |  | 
27 | 110 | CN(C)c1cccc(C/C=C(/F)CN)c1.Cl [II-11-E, (E)-2-Fluoro-4-(3-dimethylaminophenyl)-2-butenylamine hydrochloride] |  | 
28 | 10 | CSc1cccc(C/C=C(/F)CN)c1.Cl [II-13-E, (E)-2-Fluoro-4-(3-methylthiophenyl)-2-butenylamine hydrochloride] |  | 
29 | 70 | CS(=O)(=O)c1cccc(C/C=C(/F)CN)c1.Cl [II-14-E, (E)-2-Fluoro-4-(3-methanesulfonylphenyl)-2-butenylamine hydrochloride] |  | 
30 | 23 | Cl.NC/C(F)=C\Cc1cccc(SC(F)(F)F)c1 [II-15-E, (E)-2-Fluoro-4-(3-trifluoromethylthiophenyl)-2-butenylamine hydrochloride] |  | 
31 | 290 | COc1cccc(C/C(C)=C(/F)CN)c1 [II-18-E, hydrochloride] |  | 
32 | 160 | COc1cccc(OC/C=C(/F)CN)c1 [II-19-E, (E)-2-fluoro-4-(3-methoxyphenoxy)but-2-en-1-amine] |  | 
